Measurements from PMC5697638, “Identification of a Potent Phosphoinositide 3‐Kinase Pan Inhibitor Displaying a Strategic Carboxylic Acid Group and Development of Its Prodrugs” (Chemmedchem, 2017).

Key:
hPI3K‐C2β (PIK3C2B) = hPI3K‐C2β (PIK3C2B) (Homo sapiens, UniProt O00750); assay: lipid kinase assay (ADP-Glo), PI3K-C2β; type: biochemical; conditions: Table 2; 100 μM ATP; read-out: IC50 PI3Kc2β
Procedure: In vitro selection, lipid kinase assay: To determine the inhibitory activity of the new molecular entities on PI3K enzyme, a lipid kinase assay was performed: recombinant proteins (30 ng), human PI3Kα (PIK3CA/PIK3R1, #1161‐1165‐1 ProQinase–Germany), hPI3Kβ (PIK3CB wt/PIK3R1, #1168‐1165‐1 ProQinase, Germany), hPI3Kγ (PIK3CG, #1163‐0000‐1 ProQinase, Germany), hPI3Kδ (PIK3CD/PIK3R1, #1162–1165‐1 ProQinase, Germany), hPI3K‐C2α (PIK3C2A, #14‐906 Merck Millipore_Merck KGaA, Germany), hPI3K‐C2β (PIK3C2B, #14‐907 Merck Millipore_Merck KGaA, Germany), hPI3K‐c2γ (PIK3C2G, #1207‐0000‐1 ProQinase, Germany), and hVps34 (PIK3C3, #1160‐0000‐1 ProQinase, Germany), were incubated in kinase buffer {12.5 μL; 20 mM Tris‐HCl pH 7.5, 10 mM MgCl2, 10 μM ATP, 0.05 mg mL^−1 BSA, 0.5 mM EDTA, 5 mM HEPES pH 7.5, for PI3Kα,PI3Kβ, PI3Kγ, PI3Kδ, PI3KC‐2α, and PI3KC‐2γ; 15 mM MnCl2, 5 mM EGTA, 100 μM ATP, 50 mM HEPES pH 7.5, 100 mM NaCl, and 0.03 % CHAPS for PI3K‐C2β and VPS34 {BSA=bovine serum albumin; EDTA=ethylenediaminetetraacetic acid; HEPES=4‐(2‐hydroxyethyl)‐1‐piperazineethanesulfonic acid; EGTA=ethylene glycol‐bis(2‐aminoethylether)‐N,N,N′,N′‐tetraacetic acid; CHAPS=3‐[(3‐cholamidopropyl)dimethylammonio]‐1‐propanesulfonate}. In the reaction, the ATP concentration used for different PI3Ks was defined on the basis of the Michaelis–Menten kinetics of each enzyme, provided by the supplier. […]

[1] = metabolic stability in rat liver microsomes (RLM); type: in vitro ADME
Procedure: Twelve esters were prepared (see the Experimental Section for their synthesis and the Supporting Information for chromatographic methods) and evaluated in terms of metabolic stability. For this task, a combined approach based on microsomal and plasmatic stability assays was exploited considering the relevance of the plasmatic and hepatic tissues in esterase activity. Microsomal stability of the selected esters was evaluated by monitoring the disappearance of the substrate incubated in rat liver microsomes (RLM) at 50 μM concentration, in the presence of NADPH. In Table 4, the percentage of the remaining substrate, after incubation (t=60 min), with respect to the initial amount is reported. Overall, the compounds underwent a relevant metabolic transformation, and the substrate depletion ranged from 0 (for 76) to 100 % (for 70). This is mainly due to hydrolysis of the ester function, whereas the metabolites arising from the oxidation catalyzed by the NADPH‐dependent monooxygenase system were negligible from a quantitative point of view. Indeed, the main metabolite formed during the incubation of the esters was corresponding carboxyl derivative 37. […] Moreover, whereas CH2‐pyridin‐4‐yl ester 70 was completely metabolized, corresponding benzyl derivative 65 and piperonyl derivative 72 were more hydrolytically stable, and their residual substrates were 53 and 83 %, respectively. The hydrolytic stability of the selected esters was also evaluated by monitoring the depletion of the substrate incubated at a 50 μM concentration in mouse plasma over a period of 30 min. As expected, the plasmatic metabolic fate of the esters was characterized by the formation of 37 as the only metabolite (see Figure S4). The rate constant k [min^−1], derived for the substrate peak area versus time curve (single‐exponential decay equation—GraphPad Prism software, Inc., San Diego, CA (USA); see Figure S5) was used to calculate the in vitro half‐life t 1/2 [min], and the values are reported in Table 4.
Metabolic stability of PI3K inhibitors in RLM fraction
The standard incubation mixture (500 µL final volume), in 1.5 mL Eppendorf tubes, was carried out in a 50 mM TRIS-HCl buffer (pH 7.4) containing 3.3 mM MgCl2, 1.3 mM NADPNa2, 3.3 mM glucose 6-phosphate, 0.4 Units/mL glucose 6-phosphate dehydrogenase (NADPH regenerating system), acetonitrile as cosolvent (1% of final volume) and 50 µM of substrate. After pre-equilibration of the mixture, an appropriate volume of rat microsomal suspension was added to give a final protein concentration of 1 mg/mL. The mixture was shaken for 1 hour at 37°C and the reaction was quenched by diluting the samples with 500 µL of ice-cold acetonitrile. The samples were then centrifuged at 13,000 rpm for 10 min, and the supernatant was directly injected onto the HPLC column for analysis. Control incubations were performed without microsomes. […]
A Shimadzu HPLC system (Shimadzu, Kyoto, Japan), consisting of two LC-10AD Vp module pumps, an SLC-10A Vp system controller, an SIL-10AD Vp autosampler, and a DGU-14-A on-line degasser was used for the analysis. All the chromatographic separations were performed on a Phenomenex Luna C18 5µm (150 x 4.6 mm i.d.) (Phenomenex srl, Castel Bolognese, Italy) as a stationary phase protected by a Luna C18 SecurityGuard (Phenomenex srl). The SPD-M10Avp photodiode array detector was used to detect the analyte at 254 nm. LC Solution 1.24 software was used to process the chromatograms. Aliquots (20 µL) of supernatants obtained from incubations were injected onto the HPLC system and eluted with a mobile phase (flow rate: 1 mL/min) consisting of solvent A- 0.5% aqueous formic acid solution and solvent B- acetonitrile/methanol 80:20.
The eluants were filtered through a 0.45-µm pore size polyvinylidene difluoride membrane […]
The following gradients programs were used: […]

Chain of hPI3K‐C2β (PIK3C2B) (O00750 whole entry): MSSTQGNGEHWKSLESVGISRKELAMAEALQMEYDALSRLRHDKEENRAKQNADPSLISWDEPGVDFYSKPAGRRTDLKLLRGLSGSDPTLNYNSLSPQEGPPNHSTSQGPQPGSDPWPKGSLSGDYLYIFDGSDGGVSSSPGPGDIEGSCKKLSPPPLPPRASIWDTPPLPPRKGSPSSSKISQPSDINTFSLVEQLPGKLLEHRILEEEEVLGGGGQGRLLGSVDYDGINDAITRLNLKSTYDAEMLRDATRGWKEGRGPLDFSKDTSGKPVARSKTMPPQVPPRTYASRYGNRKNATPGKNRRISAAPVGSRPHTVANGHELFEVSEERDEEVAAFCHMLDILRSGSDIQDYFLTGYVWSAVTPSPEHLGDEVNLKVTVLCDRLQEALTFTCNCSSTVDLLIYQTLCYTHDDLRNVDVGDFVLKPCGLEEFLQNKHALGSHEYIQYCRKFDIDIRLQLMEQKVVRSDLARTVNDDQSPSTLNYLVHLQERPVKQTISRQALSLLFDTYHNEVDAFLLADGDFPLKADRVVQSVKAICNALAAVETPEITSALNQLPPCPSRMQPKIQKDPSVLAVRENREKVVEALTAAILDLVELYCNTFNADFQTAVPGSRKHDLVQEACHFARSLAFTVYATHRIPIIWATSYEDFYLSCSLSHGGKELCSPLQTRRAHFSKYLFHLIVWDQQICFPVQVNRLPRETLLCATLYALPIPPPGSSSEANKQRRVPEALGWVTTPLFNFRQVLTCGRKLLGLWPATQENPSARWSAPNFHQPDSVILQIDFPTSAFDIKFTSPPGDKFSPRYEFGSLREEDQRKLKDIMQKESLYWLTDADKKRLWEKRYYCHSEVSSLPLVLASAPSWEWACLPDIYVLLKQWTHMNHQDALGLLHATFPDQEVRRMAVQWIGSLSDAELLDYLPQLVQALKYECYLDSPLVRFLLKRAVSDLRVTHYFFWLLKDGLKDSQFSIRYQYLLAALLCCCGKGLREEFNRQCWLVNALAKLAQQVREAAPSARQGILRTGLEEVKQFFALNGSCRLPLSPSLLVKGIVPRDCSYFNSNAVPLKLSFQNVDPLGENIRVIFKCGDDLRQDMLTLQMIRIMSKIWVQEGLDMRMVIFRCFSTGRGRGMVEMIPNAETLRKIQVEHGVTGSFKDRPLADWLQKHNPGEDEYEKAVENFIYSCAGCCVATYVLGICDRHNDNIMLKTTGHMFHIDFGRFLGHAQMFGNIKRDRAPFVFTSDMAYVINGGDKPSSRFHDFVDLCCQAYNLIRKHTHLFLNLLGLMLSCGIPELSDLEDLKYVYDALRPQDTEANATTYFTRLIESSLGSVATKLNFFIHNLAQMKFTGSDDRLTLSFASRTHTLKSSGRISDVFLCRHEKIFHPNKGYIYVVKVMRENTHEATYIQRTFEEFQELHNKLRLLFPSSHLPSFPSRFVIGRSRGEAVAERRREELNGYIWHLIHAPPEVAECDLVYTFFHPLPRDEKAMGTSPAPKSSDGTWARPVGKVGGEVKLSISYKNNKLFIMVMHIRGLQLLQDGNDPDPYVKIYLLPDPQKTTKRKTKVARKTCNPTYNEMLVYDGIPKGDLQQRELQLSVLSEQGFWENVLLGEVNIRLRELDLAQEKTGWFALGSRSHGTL

| Residual microsomal substrate (t=60 min) ([1]; RLM, 50 μM substrate, with NADPH, LC–UV) [%] | % residual substrate, NADPH (without RLM) ([1]; control incubation without microsomes, 50 μM, 60 min) [%] | Structure (SMILES) | IC50 (hPI3K‐C2β (PIK3C2B)) [µM] |
| --- | --- | --- | --- |
|  |  | O=C(O)c1cccc(Cn2cc(-c3cccc4c(=O)cc(N5CCOCC5)[nH]c34)nn2)c1 [Compound 37, 3‐{[4‐(2‐Morpholino‐4‐oxo‐1,4‐dihydroquinolin‐8‐yl)‐1H‐1,2,3‐triazol‐1‐yl]methyl}benzoic acid] | > 20 |
| 20 | 100 | COC(=O)c1cccc(Cn2cc(-c3cccc4c(=O)cc(N5CCOCC5)[nH]c34)nn2)c1 [Compound 64, Methyl 3‐{[4‐(2‐morpholino‐4‐oxo‐1,4‐dihydroquinolin‐8‐yl)‐1H‐1,2,3‐triazol‐1‐yl]methyl}benzoate] |  |
